Experimental data taken from US20260137665A1, “COMBINATION THERAPIES FOR THE TREATMENT OF CANCER” (AADI Bioscience, Inc., priority 2022, published 2026).

Assays:
[1] = test system: NCI-H2030 human non-small cell lung cancer xenografts; assay: Anti-tumor activity in mice bearing NCI-H2030 tumor xenografts; type: in vivo; details: for Response Rate % (Tumor Regression >−30%): NCI-H2030-xenografted mice, doses per Table A1; for tumor growth inhibition (TGI): NCI-H2030 xenografts, female athymic mice, n=3/group, doses and routes per Table A1
From the text: (NCI-H2030 mutation profile: KRAS^G12C, STK11^E317*, TP53^G262V.) The KRAS G12C mutation, which is common in NSCLC, leads to constitutive activation of the tumor growth-promoting RAS/MAPK signaling pathway. STK11 is a negative regulator of mTOR signaling. The mTOR pathway is often activated in patients with KRAS mutation and contributes to adaptive resistance to KRAS inhibitors.
Female athymic mice were implanted with human NCI-H2030 NSCLC cells in both flanks.

[2] = test system: NCI-H2122 human non-small cell lung cancer xenografts; assay: Anti-tumor activity in mice bearing NCI-H2122 tumor xenografts; type: in vivo; details: for Response Rate % (Tumor Regression >−30%): NCI-H2122-xenografted mice, doses per Table D
Procedure: Next, a similar set of experiments was performed in mice bearing human NCI-H2122 tumor xenografts. NCI-H2122 is a human NSCLC […] cancer cell line that harbors KRAS^G12C and STK11 null (loss of function) mutations.

[3] = test system: UMUC3 human bladder cancer xenografts; assay: Anti-tumor activity in mice bearing UMUC3 tumor xenografts
From the text: UMUC3 is a human transitional cell carcinoma (bladder cancer) cell line harboring KRAS^G12C and PTEN null mutations. PTEN is a negative regulator or mTOR activity (UMUC3 mutation profile: KRAS^G12C, PTEN^null, TP53^F113C, ATM^Q2800fs, CDKN2A^null, UGT2B17^null.)
Briefly, female athymic mice were implanted with NCI-H2122 cells in their right flanks. When tumor volume reached approximately 100-150 mm^3, animals were randomly divided into nine groups (n=6/group), and administered with saline (control), a single agent drug, or a drug combination shown in Table F below according to the administration routes, dosages and administration frequencies shown in Table F below.

| SMILES | Response Rate % (Tumor Regression >−30%) [1] [%] | tumor growth inhibition (TGI) [1] [%] | Response Rate % (Tumor Regression >−30%) [2] [%] | tumor growth inhibition (TGI) ([2]; NCI-H2122 xenografts, female athymic mice, n=5/group, doses and routes per Table D) [%] | mice tumor-free during the study ([3]; UMUC3-xenografted mice, n=6/group) | mice surviving to the end of the study (Day 42) ([3]; UMUC3-xenografted mice, n=6/group, doses per Table F) | Response Rate % (Tumor Regression >−30%) ([3]; UMUC3-xenografted mice, doses per Table F) [%] | tumor growth inhibition (TGI) ([3]; UMUC3 xenografts, female athymic mice, n=6/group, doses and routes per Table F) [%] |
| --- | --- | --- | --- | --- | --- | --- | --- | --- |
| C=CC(=O)N1CCN(c2nc(=O)n(-c3c(C)ccnc3C(C)C)c3nc(-c4c(O)cccc4F)c(F)cc23)[C@@H](C)C1 (atropisomer, axis not shown; (M)) [sotorasib, 6-Fluoro-7-(2-fluoro-6-hydroxyphenyl)-(1M)-1-[4-methyl-2-(propan-2-yl)pyridin-3-yl]-4-[(2S)-2-methyl-4-(prop-2-enoyl)piperazin-1-yl]pyrido[2,3-d]pyrimidin-2(1H)-one] | 0 | 20 | 0 | 79 | 0/6 | 0/6 | 0 | 100 |
| CO[C@H]1C[C@@H]2CC[C@@H](C)[C@@](O)(O2)C(=O)C(=O)N2CCCC[C@H]2C(=O)O[C@H]([C@H](C)C[C@@H]2CC[C@@H](OCCO)[C@H](OC)C2)CC(=O)[C@H](C)/C=C(\C)[C@@H](O)[C@@H](OC)C(=O)[C@H](C)C[C@H](C)/C=C/C=C/C=C/1C [everolimus] | 0 | 22 | 10 |  |  |  |  |  |
